The subject of one assay is HPAF-II cells. The assay is described as follows: Cell viability (AlamarBlue) of HPAF-II cells. Format: cell-based, human. The following applies: one-week treatment; 10 µM. The procedure: HPAF-II cells and PANC-1 cells were seeded in DMEM at a density of 1000 cells per well into a black opaque 96-well plate (Greiner BioOne). After 1 day, the medium was exchanged with complete DMEM containing either compound 11, the porcupine inhibitor C59, or DMSO (vehicle control). After 3 days of incubation (37 °C, 5% CO2), the medium was exchanged once again with DMEM containing the same concentration of ligands or DMSO (vehicle control). Three days after (equal to 7 days after seeding), the medium was removed and 90 μl of fresh DMEM (without any ligands) were added. Last, 10 μl of AlamarBlue HS reagent (Thermo Fisher Scientific; catalog no.: A50100) were added to each well, and the cells were incubated for 4 h at 37 °C inside the incubator (5% CO2). After the incubation step, fluorescence was read using a TECAN Spark multimode microplate reader (excitation: 535 ± 25 nm, emission: 595 ± 35 nm).
For each cell viability experiment, the fluorescence measured in ligand-treated wells was normalized to the average fluorescence from wells treated with vehicle control (DMSO).

For a further assay, the target named is T1, Nluc-FZD5 (Homo sapiens, UniProt Q13467).
T1 construct: expressed in transfected cells; host or cells: ΔFZD1–10 HEK293T cells
T1 sequence (Q13467 27-585): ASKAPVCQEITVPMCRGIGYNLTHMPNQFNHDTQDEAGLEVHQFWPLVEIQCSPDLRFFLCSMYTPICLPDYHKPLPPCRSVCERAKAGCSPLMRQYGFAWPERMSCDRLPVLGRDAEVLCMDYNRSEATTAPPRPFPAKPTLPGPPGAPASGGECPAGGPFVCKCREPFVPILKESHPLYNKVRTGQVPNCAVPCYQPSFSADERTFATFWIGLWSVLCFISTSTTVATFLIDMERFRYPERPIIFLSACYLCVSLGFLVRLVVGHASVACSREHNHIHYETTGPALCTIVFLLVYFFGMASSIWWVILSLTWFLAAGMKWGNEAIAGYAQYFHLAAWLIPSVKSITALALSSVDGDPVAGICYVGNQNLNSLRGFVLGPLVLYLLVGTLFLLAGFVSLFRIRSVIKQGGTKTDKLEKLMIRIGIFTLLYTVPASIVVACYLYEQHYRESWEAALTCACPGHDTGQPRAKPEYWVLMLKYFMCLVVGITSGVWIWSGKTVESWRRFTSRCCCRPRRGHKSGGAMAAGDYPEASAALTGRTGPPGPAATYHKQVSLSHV
In words: BRET-based BODIPY-cyclopamine competition binding at Nluc-FZD5. The following applies: BODIPY-cyclopamine 200 nM; ΔFZD1-10 HEK293T cells; read-out: pIC50 (11) mean ± SEM, Nluc-FZD5 (converted). On the procedure: (§1) After 24 h, cells were washed once with Hanks' balanced salt solution (HBSS), followed by the addition of 80 μl of HBSS. Next, 10 μl of the competitive ligand, that is, the tested SAG1.3 derivative (either in different concentrations for the concentration–response curves or at a final concentration of 10 μM for the first screens) and 10 μl of the fluorescent tracer BODIPY–cyclopamine (final concentration: 300 nM for the first screens, 200 nM for the concentration–response experiments) were added. All serial dilutions were prepared in HBSS. The cells were incubated for 90 min at 37 °C without additional CO2, after which 10 μl of luciferase substrate diluted in HBSS (furimazine; Promega, N1572, final dilution: 1:1000 for first screening) and coelenterazine h (Biosynth; final concentration: 5 μM for concentration–response experiments) were added to the cells. Following a 10 min incubation period in the dark, the measurement was started on a BMG Labtech ClarioStar or TECAN Spark multimode microplate reader, prewarmed to 37 °C. Nluc bioluminescence was detected between 460 and 490 nm (ClarioStar) or 460 and 500 nm (TECAN Spark). The emission of the fluorescent tracer was detected between 520 and 550 nm (ClarioStar) or between 520 and 560 nm (TECAN Spark). […]

A further assay has as its target T2, ΔCRD-Nluc-FZD6 (Homo sapiens, UniProt O60353).
T2 construct: amplifying ΔCRD-FZD6 (starting from D156) using SNAP-FZD6 as a template; expressed in transfected cells; host or cells: ΔFZD1–10 HEK293T cells
T2 sequence (O60353 156-706): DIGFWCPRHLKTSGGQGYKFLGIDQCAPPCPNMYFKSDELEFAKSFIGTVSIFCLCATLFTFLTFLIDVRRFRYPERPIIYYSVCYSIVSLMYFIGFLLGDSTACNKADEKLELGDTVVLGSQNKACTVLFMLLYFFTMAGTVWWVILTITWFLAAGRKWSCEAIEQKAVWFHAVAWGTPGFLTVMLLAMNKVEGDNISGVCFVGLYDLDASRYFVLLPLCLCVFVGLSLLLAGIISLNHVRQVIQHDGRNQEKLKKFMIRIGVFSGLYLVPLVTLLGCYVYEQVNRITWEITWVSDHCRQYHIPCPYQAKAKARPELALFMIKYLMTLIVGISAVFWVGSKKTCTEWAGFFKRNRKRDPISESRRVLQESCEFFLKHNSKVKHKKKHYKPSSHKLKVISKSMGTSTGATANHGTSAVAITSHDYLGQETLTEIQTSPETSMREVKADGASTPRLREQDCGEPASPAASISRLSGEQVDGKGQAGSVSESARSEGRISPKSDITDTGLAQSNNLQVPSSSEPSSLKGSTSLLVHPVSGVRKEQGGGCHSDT
The assay is described as follows: BRET-based BODIPY-cyclopamine competition binding at FZD6 lacking the CRD. The following applies: BODIPY-cyclopamine 200 nM; ΔFZD1-10 HEK293T cells; read-out: pIC50 (11) mean ± SEM, ΔCRD-Nluc-FZD6 (converted). On the procedure:
as §1
On the technique in general: Bioluminescence resonance energy transfer reports proximity on the nanometre scale.

In assay [1] the test system is HiBiT-FZD4, HiBiT-FZD7 or HiBiT-FZD8. In words: TOPFlash reporter gene assay, test for paralog selectivity. The following applies: 10 µM compound; 300 ng/mL WNT-3A.
Experimental: The transfected cell suspension was then seeded (45,000 cells/well) into a PDL-coated, white opaque 96-well plate. One day after transfection, cells were washed once with HBSS, and 80 μl of serum-free DMEM containing 10 nM of the porcupine inhibitor C59 were added. […] All ligands/vehicle controls were diluted in serum-free DMEM containing 10 nM C59. One day after ligand stimulation, cells were washed once with HBSS, and the lysis was started using 1× Passive Lysis Buffer (Promega; catalog no.: E1910, 20 μl/well), after which the plate was shaken for 20 min at room temperature. Fluc and Rluc bioluminescence were then assessed using the Dual-Luciferase Assay System (Promega; catalog no.: E1910, 20 μl of both LARII [Luciferase Assay II reagent] and 1× Stop-and-Glo Reagent). Measurements were performed using a TECAN Spark multimode microplate reader.
For reporter gene assays, the TOPFlash ratio was defined as the ratio of β-catenin-dependent gene transcription (Fluc) over a constitutively expressed transfection control (Rluc). For all experiments, the calculated TOPFlash ratios were normalized to the respective vehicle conditions.
Experiments were performed in ΔFZD1-10 HEK293T cells transiently transfected with HiBiT-FZD4 (A), HiBiT-FZD7 (B) or HiBiT-FZD8 (C). Data represent mean values ± SEM from three independent experiments performed in triplicate. […]

With `CC(=O)Nc1cccc(C(=O)NC2CCC(N(Cc3cccc(-c4ccncc4)c3)C(=O)c3sc4ccccc4c3Cl)CC2)c1` (stereo not shown) [compound 11, N-((1r,4r)-4-(3-Acetamidobenzamido)cyclohexyl)-3-chloro-N-(3-(pyridin-4-yl)benzyl)benzo[b]thiophene-2-carboxamide], the “Cell viability of RNF43-negative HPAF-II cells” value with HPAF-II cells is given as “strongly reduced”. The figures for the IC50 at Nluc-FZD5 and at ΔCRD-Nluc-FZD6 were 759 nM and 851 nM, respectively. In addition, the “Subtype preference in TOPFlash assays” value in assay [1] is listed as “did not show a subtype preference”.

The record behind these values is article PMC12605013, “SAG1.3-derived Frizzled-targeting small-molecule compounds” (The Journal of Biological Chemistry, 2025).
